From patent US6596719B1 (Actelio Pharmaceuticals Ltd., priority 1999, dated 2003)
Like-named read-outs stand apart in the source and are kept apart here.

What was measured:
ETB receptors = molecular target: T1, ETB receptors (Rattus norvegicus, UniProt P21451); assay: Inhibition of sarafotoxin S6c-induced contractions on isolated rat tracheal rings; conditions: for pA2 value ETB: rat tracheal rings, contraction induced by sarafotoxin S6c, 10 min incubation
T1 sequence (P21451 27-442): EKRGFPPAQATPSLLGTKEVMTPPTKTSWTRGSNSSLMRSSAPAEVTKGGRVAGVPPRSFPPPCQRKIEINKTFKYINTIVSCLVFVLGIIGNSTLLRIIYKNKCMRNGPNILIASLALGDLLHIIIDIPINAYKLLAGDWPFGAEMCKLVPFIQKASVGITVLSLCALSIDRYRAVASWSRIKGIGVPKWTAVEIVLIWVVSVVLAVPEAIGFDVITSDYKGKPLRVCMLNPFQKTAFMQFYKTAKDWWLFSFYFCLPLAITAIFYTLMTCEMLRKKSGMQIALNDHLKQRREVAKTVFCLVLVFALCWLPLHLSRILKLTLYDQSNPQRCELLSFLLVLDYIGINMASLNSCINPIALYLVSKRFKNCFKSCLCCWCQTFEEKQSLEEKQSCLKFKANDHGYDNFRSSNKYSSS

[1] = molecular target: T2, human recombinant ETB receptors (Homo sapiens, UniProt P24530); assay: Inhibition of endothelin binding to membranes from CHO cells carrying human ET receptors (ETB)
T2 construct: expressed in transfected cells; host or cells: CHO cells (microsomal membranes)
T2 sequence (P24530 27-442): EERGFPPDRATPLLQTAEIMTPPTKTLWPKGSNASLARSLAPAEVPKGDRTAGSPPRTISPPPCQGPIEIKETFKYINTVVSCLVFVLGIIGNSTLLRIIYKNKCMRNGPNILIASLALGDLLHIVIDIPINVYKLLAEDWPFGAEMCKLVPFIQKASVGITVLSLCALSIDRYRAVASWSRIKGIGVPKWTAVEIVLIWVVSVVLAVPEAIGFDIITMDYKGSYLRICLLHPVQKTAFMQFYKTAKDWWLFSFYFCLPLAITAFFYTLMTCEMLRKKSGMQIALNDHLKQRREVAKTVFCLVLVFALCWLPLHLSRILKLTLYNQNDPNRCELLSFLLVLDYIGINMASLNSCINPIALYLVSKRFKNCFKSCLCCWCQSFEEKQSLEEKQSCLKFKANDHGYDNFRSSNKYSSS
Protocol: 1) Inhibition of Endothelin Binding to Membranes from CHO Cells Carrying Human ET Receptors:
For competition binding studies, membranes of CHO cells expressing human recombinant ETA or ETB receptors were used. Microsomal membranes from recombinant CHO cells were prepared and the binding assay made as previously described (Breu V., et al, FEBS Lett 1993; 334:210).
The assay was performed in 200 uL 50 mM Tris/HCl buffer, pH 7.4, including 25 mM MnCl2, 1 mM EDTA and 0.5% (w/v) BSA in polypropylene microtiter plates. […]. […] After two h, the membranes were filtered on, filterplates containing GF/C filters (Unifilterplates from Canberra Packard S. A. Zürich, Switzerland). To each well, 50 uL of scintillation cocktail was added (MicroScint 20, Canberra Packard S. A. Zürich, Switzerland) and the filter plates counted in a microplate counter (TopCount, Canberra Packard S. A. Zürich, Switzerland).
All the test compounds were dissolved, diluted and added in DMSO. […] […].

[2] = molecular target: T3, human recombinant ETA receptors (Homo sapiens, UniProt P25101); assay: Inhibition of endothelin binding to membranes from CHO cells carrying human ET receptors (ETA)
T3 construct: expressed in transfected cells; host or cells: CHO cells (microsomal membranes)
T3 sequence (P25101 21-427): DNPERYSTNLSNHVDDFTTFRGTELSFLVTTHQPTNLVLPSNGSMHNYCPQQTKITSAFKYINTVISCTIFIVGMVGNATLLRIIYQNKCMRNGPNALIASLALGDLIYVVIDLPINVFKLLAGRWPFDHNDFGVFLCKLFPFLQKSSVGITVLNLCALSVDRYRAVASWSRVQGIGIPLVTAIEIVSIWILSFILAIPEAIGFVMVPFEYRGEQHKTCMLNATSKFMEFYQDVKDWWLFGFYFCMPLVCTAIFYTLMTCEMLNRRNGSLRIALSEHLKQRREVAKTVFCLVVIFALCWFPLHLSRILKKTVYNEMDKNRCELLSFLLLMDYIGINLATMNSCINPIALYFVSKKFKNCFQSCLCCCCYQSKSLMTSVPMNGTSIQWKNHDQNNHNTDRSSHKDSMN

ETA receptors = molecular target: T4, ETA receptors (Rattus norvegicus, UniProt P26684); assay: Inhibition of endothelin-1-induced contractions on isolated rat aortic rings; conditions: for pA2 value ETA: rat aortic rings, contraction induced by endothelin-1, 10 min incubation
T4 sequence (P26684 21-426): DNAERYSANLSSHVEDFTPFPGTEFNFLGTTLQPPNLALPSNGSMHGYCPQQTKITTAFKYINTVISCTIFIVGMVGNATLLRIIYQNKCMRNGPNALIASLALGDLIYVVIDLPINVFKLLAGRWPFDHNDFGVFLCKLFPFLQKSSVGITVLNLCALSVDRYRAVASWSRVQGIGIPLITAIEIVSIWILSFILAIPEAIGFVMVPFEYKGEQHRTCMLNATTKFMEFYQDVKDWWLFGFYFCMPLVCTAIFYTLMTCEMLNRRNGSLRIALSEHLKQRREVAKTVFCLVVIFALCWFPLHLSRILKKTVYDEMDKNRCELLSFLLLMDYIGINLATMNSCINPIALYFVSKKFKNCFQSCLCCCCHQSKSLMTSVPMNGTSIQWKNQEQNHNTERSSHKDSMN

[3] = membranes of CHO cells expressing human recombinant ETA receptors, 8 pM [125I]ET-1, 2 h at 20° C.

SMILES	pA2 value ETB (ETB receptors)	IC50 [1] [nM]	IC50 [2, 3] [nM]	pA2 value ETA (ETA receptors)	Kb (ETB receptors) [nM]	IC50 [2] [nM]	Kb (ETA receptors) [nM]	IC50 ([1]; membranes of CHO cells expressing human recombinant ETB receptors, 8 pM [125I]ET-1, 2 h at 20° C.) [nM]
COc1ccccc1Oc1c(NS(=O)(=O)c2ccc(C(C)(C)C)cc2)nc(-c2ncccn2)nc1OCCNS(=O)(=O)c1cccs1 [Example 7, p-tert.-butyl-N-[6-(ethoxy-2-(2-thiophenesulfonamido))-5-(o-methoxyphenoxy)-2-(2-pyrimidinyl)-4-pyrimidinyl]benzene-sulfonamide]	7.15	15.8	63.6	6.08	–	–	–	–
COc1ccccc1Oc1c(NS(=O)(=O)c2ccc(C(C)C)cn2)nc(-c2ccncc2)nc1OCCNS(=O)(=O)C(C)C [Example 10, 5-i.-propyl-N-[6-(ethoxy-2-(2-propanesulfonamido))-5-(o-methoxyphenoxy)-2-(4-pyridyl)-4-pyrimidinyl]pyridine-2-sulfonamide]	–	193	–	–	1260	67.2	186	–
COc1ccccc1Oc1c(NS(=O)(=O)c2ccc(C(C)C)cn2)nc(-c2cc(OC)c(OC)c(OC)c2)nc1OCCNS(=O)(=O)c1ccc(C)cc1 [Example 11, 5-i.-propyl-N-[6-(ethoxy-2-(4-methylbenzenesulfonamido))-5-(o-methoxyphenoxy)-2-(3,4,5-trimethoxyphenyl)-4-pyrimidinyl]pyridine-2-sulfonamide]	7.46	4.3	5110	–	–	–	–	–
COc1ccccc1Oc1c(NS(=O)(=O)c2ccc(C(C)C)cn2)nc(-c2ccncc2)nc1OCCNS(=O)(=O)c1ccc(C)cc1 [Example 12]	–	73.3	–	–	513	2120	851	–
COc1ccccc1Oc1c(NS(=O)(=O)c2ccc(C(C)C)cn2)nc(-c2cc(OC)c(OC)c(OC)c2)nc1OCCNS(=O)(=O)c1cccs1 [Example 15, 5-i.-propyl-N-[6-(ethoxy-2-thiophenesulfonamido)-5-(o-methoxyphenoxy)-2-(3,4,5-trimethoxyphenyl)-4-pyrimidinyl]pyridine-2-sulfonamide]	–	7.3	1320	–	40.7	–	–	–
CCCS(=O)(=O)NCCOc1nc(-c2cc(OC)c(OC)c(OC)c2)nc(NS(=O)(=O)c2ccc(C(C)C)cn2)c1Oc1ccccc1OC [Example 16, 5-i.-propyl-N-[6-(ethoxy-2-(1-propanesulfonamido))-5-(o-methoxyphenoxy)-2-(3,4,5-trimethoxyphenyl)-4-pyrimidinyl]pyridine-2-sulfonamide]	–	24.5	261	–	34.7	–	> 3160	–
CCS(=O)(=O)NCCOc1nc(C(F)(F)F)nc(NS(=O)(=O)c2ccc(C(C)C)cn2)c1Oc1ccccc1OC [Example 55, 5-i.-propyl-N-[6-(2-(ethanesulfonylamino)-ethoxy)-5-(o-methoxyphenoxy)-2-trifluoromethyl-4-pyrimidinyl]pyridine-2-sulfonamide]	6.3	–	–	6.2	–	–	–	–
CCCS(=O)(=O)NCCOc1nc(N2CCOCC2)nc(NS(=O)(=O)c2ccc(C)cn2)c1Oc1ccccc1OC [Example 59, 5-methyl-N-[6-(2-(1-propanesulfonylamino)-ethoxy)-5-(o-methoxyphenoxy)-2-(N-morpholino)-4-pyrimidinyl]-2-pyridine sulfonamide]	5.58	189	–	6.61	–	103	–	–
COc1ccccc1Oc1c(NS(=O)(=O)c2ccc(C(C)C)cn2)nc(N2CCOCC2)nc1OCCNS(=O)(=O)c1ccc(C)cc1 [Example 60, 5-isopropyl-N-[6-(2-(4-methylbenzenesulfonylamino)-ethoxy)-5-(o-methoxyphenoxy)-2-(N-morpholino)-4-pyrimidinyl]-2-pyridine sulfonamide]	7.3	16	–	–	–	1440	–	–
CCS(=O)(=O)NCCOc1nc(N2CCOCC2)nc(NS(=O)(=O)c2ccc(C(C)C)cn2)c1Oc1ccccc1OC [Example 61, 5-isopropyl-N-[6-(2-(ethanesulfonylamino)-ethoxy)-5-(o-methoxyphenoxy)-2-(N-morpholino)-4-pyrimidinyl]-2-pyridine sulfonamide]	6.36	183	–	7.02	–	92	–	–
CCS(=O)(=O)NCCOc1nc(-c2ncccn2)nc(NS(=O)(=O)c2ccc(C(C)C)cn2)c1Oc1ccccc1OC [Example 70, 5-isopropyl-N-[6-(2-(ethanesulfonylamino)-ethoxy)-5-(o-methoxyphenoxy)-2-(2-pyrimidinyl)-4-pyrimidinyl]-2-pyridine sulfonamide]	–	2070	–	–	–	282	891	–
CCS(=O)(=O)NCCCOc1nc(C2CC2)nc(NS(=O)(=O)c2ccc(C(C)(C)C)cc2)c1Oc1ccccc1OC [Example 87]	–	–	48.1	6.52	–	–	–	33.1
COc1ccccc1Oc1c(NS(=O)(=O)c2ccc(C(C)(C)C)cc2)nc(C2CC2)nc1OCCCNS(=O)(=O)c1cccs1 [Example 88, 4-tert.-butyl-N-[6-(3-(2-thiophenesulfonylamino)-propoxy)-5-(o-methoxyphenoxy)-2-cyclopropyl-4-pyrimidinyl]-benzene-sulfonamide]	7.95	–	–	6.16	–	–	–	–
